For test [1], the target named is T1, Human Collagenase (MMP-1) (Homo sapiens, UniProt P03956).
T1 sequence (P03956 100-469): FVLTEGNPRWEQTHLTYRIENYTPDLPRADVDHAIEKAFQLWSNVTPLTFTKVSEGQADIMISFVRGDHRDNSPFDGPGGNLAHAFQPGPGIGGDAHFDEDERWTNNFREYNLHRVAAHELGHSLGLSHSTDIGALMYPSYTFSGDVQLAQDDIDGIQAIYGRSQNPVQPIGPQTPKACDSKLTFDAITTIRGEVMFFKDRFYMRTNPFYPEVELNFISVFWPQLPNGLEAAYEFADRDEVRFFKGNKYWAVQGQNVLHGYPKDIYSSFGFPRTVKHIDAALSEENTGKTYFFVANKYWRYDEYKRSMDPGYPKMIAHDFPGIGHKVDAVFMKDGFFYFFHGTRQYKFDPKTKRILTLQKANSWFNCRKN
Nature of the test: Inhibition of Human Collagenase (MMP-1), fluorogenic peptide substrate. The class given is biochemical. Particulars: human recombinant collagenase activated with trypsin; each table line is a separate determination. How it is done: Inhibition of Human Collagenase (MMP-1)
Human recombinant collagenase is activated with trypsin using the following ratio: […] of collagenase. The trypsin and collagenase are incubated at room temperature for 10 minutes then a five fold excess (50 mg/10 mg trypsin) of soybean trypsin inhibitor is added.
10 mM stock solutions of inhibitors are made up in dimethyl sulfoxide and then diluted using the following Scheme: 10 mM ―> 120 µM ―> 12 µM ―> 1.2 µM ―> 0.12 µM
Twenty-five microliters of each concentration is then added in triplicate to appropriate wells of a 96 well microfluor plate. The final concentration of inhibitor will be a 1:4 dilution after addition of enzyme and substrate. Positive controls (enzyme, no inhibitor) are set up in wells D1-D6 and blanks (no enzyme, no inhibitors) are set in wells D7-D12.
Collagenase is diluted to 400 ng/ml and […] is then added to appropriate wells of the microfluor plate. Final concentration of collagenase in the assay is 100 ng/ml.
Substrate (DNP-Pro-Cha-Gly-Cys(Me)-His-Ala-Lys(NMA)-NH2) is made as a 5 mM stock in dimethyl sulfoxide and then diluted to […] in assay buffer. The assay is initiated by the addition of […] substrate per well of the microfluor plate to give a final concentration of […].
Fluorescence readings (360 nm excitation. 460 nm emission) were taken at time 0 and then at 20 minute intervals. The assay is conducted at room temperature with a typical assay time of 3 hours.
Fluorescence vs time is then plotted for both the blank and collagenase containing samples (data from triplicate determinations is averaged). […] The zero time is used as a blank for each compound at each concentration and these values are subtracted from the 120 minute data. Data is plotted as inhibitor concentration vs % control (inhibitor fluorescence divided by fluorescence of collagenase alone x 100). IC50's are determined from the concentration of inhibitor that gives a signal that is 50% of the control. […]

The next test has as its target Human recombinant MMP-13 (Homo sapiens, UniProt P45452). Nature of the test: Inhibition of MMP-13, fluorogenic peptide substrate. In kind it is biochemical. Particulars: human recombinant MMP-13 activated with APMA; each table line is a separate determination. Here is the method:
Human recombinant MMP-13 is activated with 2mM APMA (p-aminophenyl mercuric acetate) for 1.5 hours, at 37°C and is diluted to […] in assay buffer (50 mM Tris, pH 7.5, 200 mM sodium chloride, 5mM calcium chloride, […], 0.02% brij). Twenty-five microliters of diluted enzyme is added per well of a 96 well microfluor plate. The enzyme is then diluted in a 1:4 ratio in the assay by the addition of inhibitor and substrate to give a final concentration in the assay of […].
10 mM stock solutions of inhibitors are made up in dimethyl sulfoxide and then diluted in assay buffer as per the inhibitor dilution scheme for inhibition of human collagenase (MMP-1): Twenty-five microliters of each concentration is added in triplicate to the microfluor plate. The final concentrations in the assay are 30 mM, 3mM, 0.3 mM, and 0.03 mM.
Substrate (Dnp-Pro-Cha-Gly-Cys(Me)-His-Ala-Lys(NMA)-NH2) is prepared as for inhibition of human collagenase (MMP-1) and […] is added to each well to give a final assay concentration of […]. Fluorescence readings (360 nm excitation; 450 emission) are taken at time 0 and every 5 minutes for 1 hour.
Positive controls consist of enzyme and substrate with no inhibitor and blanks consist of substrate only.
IC50's are determined as per inhibition of human collagenase (MMP-1). If IC50's are reported to be less than […], inhibitors are then assayed at final concentrations of 0.3 mM, 0.03 mM, 0.003 mM and 0.0003 mM.

IC50 data for three molecules are collected here from EP1415984A1, “Aryloxyarylsulfonylamino hydroxamic acid derivatives” (Pfizer Products Inc., priority 1997, dated 1999).

“And” between values parts separate entries of the source, which are not always exact repeats. Equal values may be shown once.

One may read the IC50 as the midpoint of a concentration-inhibition curve. `O=C(O)CCN(C1(C(=O)NO)CCCC1)S(=O)(=O)c1ccc(Oc2ccc(F)cc2)cc1` [Example 2, 3-[[4-(4-FLUOROPHENOXY)BENZENESULFONYL]-(1-HYDROXYCARBAMOYLCYCLOPENTYL) AMINO]PROPIONIC ACID]: the IC50 in test [1] was 360 nM and 200 nM; at Human recombinant MMP-13, 1.2 nM and 0.6 nM.

As to `CCOC(=O)CCN(C(C)(C)C(=O)NO)S(=O)(=O)c1ccc(Oc2ccc(F)cc2)cc1` [Example 3, 3-[[4-(4-FLUOROPHENOXY)BENZENESULFONYL]-(1-HYDROXYCARBAMOYL-1-METHYLETHYL)AMINO]PROPIONIC ACID ETHYL ESTER], the IC50 in test [1] was 1200 nM and 1800 nM; at Human recombinant MMP-13, 1.6 nM and 2.3 nM.

For `CC(C)(C(=O)NO)N(CCC(=O)O)S(=O)(=O)c1ccc(Oc2ccc(F)cc2)cc1` [Example 4, 3-[[4-(4-FLUOROPHENOXY)BENZENESULFONYL)-(1-HYDROXYCARBAMOYL-1-METHYLETHYL)AMINO]PROPIONIC ACID], the IC50 in test [1] was 3500 nM and 2000 nM and 4800 nM; at Human recombinant MMP-13, 5.7 nM and 2.3 nM and 8 nM.
